Here are results for 26 molecules from patent US20240417405A1, “Substituted Spiro Derivatives” (Janssen Pharmaceutica NV, priority 2021, published 2024).

In experiment [1] the target is T1, menin/MLL (terbium chelate-labeled menin, FITC-MBM1 peptide) (Homo sapiens, UniProt O00255, T541A).
T1 construct: Menin (a.a 1-610-6xhis tag)
T1 sequence (O00255 with tags, fused parts or gaps T541A): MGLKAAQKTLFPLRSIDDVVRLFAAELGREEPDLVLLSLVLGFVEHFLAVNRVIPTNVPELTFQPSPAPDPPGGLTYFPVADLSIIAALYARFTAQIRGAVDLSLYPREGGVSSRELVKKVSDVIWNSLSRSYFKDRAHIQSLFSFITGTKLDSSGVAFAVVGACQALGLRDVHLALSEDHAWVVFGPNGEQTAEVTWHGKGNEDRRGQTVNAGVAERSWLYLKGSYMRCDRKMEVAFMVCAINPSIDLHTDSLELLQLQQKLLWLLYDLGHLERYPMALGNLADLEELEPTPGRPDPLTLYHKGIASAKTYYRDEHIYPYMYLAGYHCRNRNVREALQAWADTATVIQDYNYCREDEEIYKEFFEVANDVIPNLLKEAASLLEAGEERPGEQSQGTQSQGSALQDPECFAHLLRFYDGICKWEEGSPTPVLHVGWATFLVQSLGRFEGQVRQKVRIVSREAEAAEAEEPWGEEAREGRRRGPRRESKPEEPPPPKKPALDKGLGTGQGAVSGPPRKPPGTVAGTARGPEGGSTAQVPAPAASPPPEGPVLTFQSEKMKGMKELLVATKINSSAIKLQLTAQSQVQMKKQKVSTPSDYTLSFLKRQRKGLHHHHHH
Briefly: Menin/MLL homogenous time-resolved fluorescence (HTRF) assay. Type of experiment: binding. The conditions noted are these: 30 min incubation. Put shortly:
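Displacement of FITC-labeled MBM1 peptide (75 nM) from terbium-labeled menin 1-610 (200 pM) measured by HTRF emission ratio. Eleven four-fold dilutions, typically from 10 μM, normalised to saturating-competitor and no-compound controls; IC50 from four-parameter logistic.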
Background: In TR-FRET formats the signal depends on donor and acceptor labels being close together.

The subject of another experiment is MOLM14 cells. Briefly: Proliferation assay, spheroid-like growth, MOLM14 (MLL-AF9 rearranged). The settings on record: Homo sapiens, MOLM-14, 192 h, 8 days, confluence as measure of spheroid size, read-out: spheroid assay_OneTime MOLM14 IC50. Type of experiment: cell-based, human. Put shortly: (§1)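 Read-out is spheroid confluence from live-cell images taken on day 8, scaled between DMSO-treated wells (0% cytotoxicity) and a low control such as 1 μM staurosporin. Cells were exposed to compound for 8 days in low-attachment plates; KO-52 served as the MLL-wildtype counterscreen.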

A further experiment relates to KO-52 cells. The experiment is described as follows: Proliferation assay, spheroid-like growth, KO-52 (MLL wildtype control cell line). It is filed as cell-based, human. The conditions noted are these: Homo sapiens, 192 h, KO-52 control cells, 8 days, confluence as measure of spheroid size; read-out: spheroid assay_OneTime KO-52 IC50. The procedure, abridged:
as §1

SMILES strings stand for the structures. A value given as a limit tells only on which side of the number the result lay.

The IC50 is the point on the concentration scale where inhibition reaches its midpoint. `CC(C)[C@H]([C@H]1C[C@@H](N2CCC3(COC3)C2)C1)N1CC2(CCN(c3ncnnc3Oc3ccc(F)cc3-c3cncnc3C3CC3)C2)C1` (single isomer, unassigned) [Compound 325]: the IC50 in experiment [1] was 0.1 nM; in the experiment with MOLM14 cells it was 4 nM; with KO-52 cells it was 4980 nM.

As for `CC(C)[C@H]([C@H]1C[C@H](N2CCC3(C2)CS(=O)(=O)C3)C1)N1CC2(CCN(c3ncnnc3Oc3ccc(F)cc3-c3cncnc3C3CC3)C2)C1` (single isomer, unassigned) [Compound 204], the IC50 is 0.3 nM in experiment [1], 190 nM in the experiment with MOLM14 cells and > 15000 nM with KO-52 cells.

`COC1CN([C@H]2C[C@H]([C@@H](C(C)C)N3CC4(CCN(c5ncnnc5Oc5ccc(F)cc5-c5cncnc5C5CC5)C4)C3)C2)CC1OC` (single isomer, unassigned) [Compound 237]: the IC50 in experiment [1] stood at 0.2 nM; in the experiment with MOLM14 cells it was 36 nM; in the experiment with KO-52 cells it was 7900 nM.

Regarding `CC(C)[C@H]([C@H]1C[C@@H](NC(=O)C2CC2)C1)N1CC2(CCN(c3ncnnc3Oc3ccc(F)cc3-c3n[nH]c(=O)cc3C3CC3)C2)C1` (single isomer, unassigned) [Compound 309], the IC50 in experiment [1] came out at 0.2 nM; in the experiment on MOLM14 cells, 22 nM; in the experiment on KO-52 cells it was 7390 nM.

On to `CC(C)[C@@H]([C@H]1C[C@@H](N2C[C@H]3C[C@@H]2CO3)C1)N1CC2(CCN(c3ncnnc3Oc3ccc(F)cc3-c3cccnc3C3CC3)C2)C1` (single isomer, unassigned) [Compound 290], for which the IC50 in experiment [1] stood at 0.1 nM; with MOLM14 cells it was 5 nM; in the experiment with KO-52 cells it was 1080 nM.

In the case of `CC(C)[C@H]([C@H]1C[C@H](N2CCC3(CCO3)CC2)C1)N1CC2(CCN(c3ncnnc3Oc3ccc(F)cc3-c3cnncc3C3CC3)C2)C1` (single isomer, unassigned) [Compound 280b], the IC50 in experiment [1] was 2.4 nM; with MOLM14 cells, 740 nM; with KO-52 cells, > 15000 nM.

Consider `CC(=O)N1CCC12CN([C@H]1C[C@H]([C@@H](C(C)C)N3CC4(CCN(c5ncnnc5Oc5ccc(F)cc5-c5cncnc5C5CC5)C4)C3)C1)C2` (single isomer, unassigned) [Compound 173], for which the IC50 in experiment [1] is 0.2 nM; in the experiment with MOLM14 cells, 150 nM; in the experiment on KO-52 cells it was > 15000 nM.

On to `Fc1ccc(Oc2nncnc2N2CCC3(C2)CN([C@@H](C2CCN(CC4COC4)CC2)C24CC(C2)C4)C3)c(-c2cncnc2C2CC2)c1` (single isomer, unassigned) [Compound 336], for which the IC50 was found to be 0.6 nM in experiment [1], 180 nM in the experiment on MOLM14 cells and 7650 nM in the experiment with KO-52 cells.

For the molecule `CC(C)[C@H]([C@H]1C[C@@H](NC2CC2)C1)N1CC2(CCN(c3ncnnc3Oc3ccc(F)cc3-c3cncnc3C3CC3)C2)C1` (single isomer, unassigned) [Compound 39], the IC50 in experiment [1] came out at 0.1 nM; in the experiment with MOLM14 cells it was 7 nM; in the experiment with KO-52 cells it was 1480 nM.

`CC(C)[C@@H]([C@H]1C[C@]2(COC(=O)N2)C1)N1CC2(CCN(c3ncnnc3Oc3ccc(F)cc3-c3nnccc3C3CC3)C2)C1` (single isomer, unassigned) [Compound 324]: the IC50 in experiment [1] is 117 nM; in the experiment with MOLM14 cells, > 940 nM; in the experiment with KO-52 cells, > 15000 nM.

In the case of `CC(C)[C@@H]([C@H]1C[C@@H](N2CCN(C(=O)N(C)C)CC2)C1)N1CC2(CCN(c3ncnnc3Oc3ccc(F)cc3-c3cccnc3C3CC3)C2)C1` (single isomer, unassigned) [Compound 92], the IC50 in experiment [1] worked out at 0.1 nM; with MOLM14 cells it was 7 nM; in the experiment on KO-52 cells, 780 nM.

For `CC(C)[C@H]([C@H]1C[C@@H](N2CCCC2)C1)N1CC2(CCN(c3ncnnc3Oc3ccc(F)cc3-c3cncnc3C3CC3)C2)C1` (single isomer, unassigned) [Compound 18], the values for the IC50 (in experiment [1]; in the experiment on MOLM14 cells; in the experiment on KO-52 cells) were 0.1 nM, 2 nM and 810 nM, respectively.

`CC(C)[C@H]([C@H]1C[C@@H](N2C[C@H](O)C3(CC3)C2)C1)N1CC2(CCN(c3ncnnc3Oc3ccc(F)cc3-c3cncnc3C3CC3)C2)C1` (single isomer, unassigned) [Compound 45]: the IC50 in experiment [1] was 0.2 nM; with MOLM14 cells, < 2 nM; with KO-52 cells it was 6330 nM.

For the molecule `CC(C)[C@@H]([C@H]1C[C@]2(COC(=O)N2)C1)N1CC2(CCN(c3ncnnc3Oc3ccc(F)cc3-c3ncccc3C3CC3)C2)C1` (single isomer, unassigned) [Compound 322], the IC50 was 0.3 nM in experiment [1], 30 nM with MOLM14 cells and > 15000 nM in the experiment on KO-52 cells.

Turning to `CC(=O)N[C@H]1C[C@@H](C(C(C)C)N2CC3(CCN(c4ncnnc4Oc4ccc(F)cc4-c4ncncc4C4CC4)C3)C2)C1` (stereo partly drawn) [Compound 179], the figures for the concentration for half-maximal inhibition (IC50) (in experiment [1]; with MOLM14 cells; with KO-52 cells) were 0.4 nM, 73 nM and 12600 nM, respectively.

Take `CC(C)[C@H]([C@H]1C[C@H](N2CCC(O)C(F)C2)C1)N1CC2(CCN(c3ncnnc3Oc3ccc(F)cc3-c3cncnc3C3CC3)C2)C1` (single isomer, unassigned) [Compound 33]: the IC50 in experiment [1] is 0.3 nM; in the experiment with MOLM14 cells it was 7 nM; in the experiment with KO-52 cells, 2490 nM.

Regarding `CC(C)[C@@H]([C@H]1C[C@@H](N2CCCCC2)C1)N1CC2(CCN(c3ncnnc3Oc3ccc(F)cc3-c3nnccc3C3CC3)C2)C1` (single isomer, unassigned) [Compound 250], the figures for the IC50 (in experiment [1]; in the experiment on MOLM14 cells; in the experiment on KO-52 cells) were 0.1 nM, 8 nM and 940 nM, respectively.

Regarding `CC(C)[C@H]([C@H]1C[C@]2(COC(=O)N2)C1)N1CC2(CCN(c3ncnnc3Oc3ccc(F)cc3-c3cncnc3C3CC3)C2)C1` (single isomer, unassigned) [Compound 319], the IC50 is 23.7 nM in experiment [1], > 940 nM in the experiment with MOLM14 cells and > 15000 nM with KO-52 cells.

Consider `CC(C)[C@@H]([C@H]1C[C@@H](N2CC(OC3CC3)C2)C1)N1CC2(CCN(c3ncnnc3Oc3ccc(F)cc3-c3nnccc3C3CC3)C2)C1` (single isomer, unassigned) [Compound 274], for which the IC50 in experiment [1] was determined as 0.1 nM; with MOLM14 cells, 2 nM; in the experiment on KO-52 cells, 3560 nM.

Turning to `CC(C)[C@H](C1CCN(C[C@H]2C[C@@](C)(O)C2)CC1)N1CC2(CCN(c3ncnnc3Oc3ccc(F)cc3-c3cccnc3C3CC3)C2)C1` (single isomer, unassigned) [Compound 351], the results for the IC50 (in experiment [1]; in the experiment on MOLM14 cells; in the experiment on KO-52 cells) were 0.1 nM, 20 nM and 1100 nM, respectively.

With `CC(C)[C@H]([C@H]1C[C@@H](NC(=O)C2CC2)C1)N1CC2(CCN(c3ncnnc3Oc3ccc(F)cc3-c3nnccc3C3CC3)C2)C1` (single isomer, unassigned) [Compound 304], the values for the IC50 (in experiment [1]; in the experiment on MOLM14 cells; with KO-52 cells) were 0.1 nM, 32 nM and 12100 nM, respectively.

`CC(C)[C@@H]([C@H]1C[C@@H](N2C[C@H]3COC[C@H]3C2)C1)N1CC2(CCN(c3ncnnc3Oc3ccc(F)cc3-c3cnc(C#N)nc3C3CC3)C2)C1` [Compound 168]: the results for the IC50 (in experiment [1]; with MOLM14 cells; with KO-52 cells) were 0.6 nM, 53 nM and 2590 nM, respectively.

Turning to `CC(C)C(C1CC2(CCN2CC2COC2)C1)N1CC2(CCN(c3ncnnc3Oc3ccc(F)cc3-c3cncnc3C3CC3)C2)C1` (stereo not drawn) [Compound 156], the IC50 in experiment [1] came to 0.8 nM; in the experiment on MOLM14 cells, 100 nM; in the experiment with KO-52 cells it was 7960 nM.

Consider `CC(C)C([C@H]1C[C@H](N2CC(O)C2)C1)N1CC2(CCN(c3ncnnc3Oc3ccc(F)cc3-c3cncnc3C3CC3)C2)C1` (stereo partly drawn) [Compound 126], for which the IC50 in experiment [1] was found to be 0.4 nM; with MOLM14 cells it was 150 nM; in the experiment with KO-52 cells, 14900 nM.

`CC(C)[C@H]([C@H]1C[C@@H](N2CC[C@H](S(C)(=O)=O)C2)C1)N1CC2(CCN(c3ncnnc3Oc3ccc(F)cc3-c3ncccc3C3CC3)C2)C1` (single isomer, unassigned) [Compound 286]: the IC50 in experiment [1] turned out to be 0.3 nM; in the experiment with MOLM14 cells, 120 nM; with KO-52 cells it was 12200 nM.

Turning to `CC(C)[C@H]([C@H]1C[C@@H](N2CC3(COC3)C2)C1)N1CC2(CCN(c3ncnnc3Oc3ccc(F)cc3-c3ncc(C#N)cc3C3CC3)C2)C1` (single isomer, unassigned) [Compound 94], the IC50 in experiment [1] worked out at 0.1 nM; with MOLM14 cells, 25 nM; with KO-52 cells it was 3390 nM.
